The values below come from patent US5274080A, “Monospecific antibodies useful in evaluating inhibition of polymorphonuclear leukocyte elastase by N-substituted azetidinones” (Merck & Co., Inc., priority 1991, dated 1993).

SMILES strings stand for the structures.

This test concerns antibody R674. Kind of test: Radioimmune assay: displacement of tritium labeled reactivation product from antibody R674. It counts as binding, rabbit. The following applies: up to 10 μM (the highest concentration tested).

Procedure: Non-antibody-bound radioactive isotope was removed from the reaction mixture by its absorption onto dextran-coated activated charcoal. […] The activated charcoal was then suspended to 3% (w/v) in PBS dextran and allowed to stand overnight, washed once again in PBS dextran and resuspended to 3% (w/v) in PBS dextran and stored at 4° C. Immediately before use in the assay, the dextran-coated activated charcoal was diluted 10-fold in DULBECCO's PBS and 1 ml was added to each assay tube. […] The supernatant fluid was decanted into 9 ml of AQUASOL-2 scintillation fluid and radioactivity counted in a beta-counter. Each assay contains charcoal free controls, to which 1 ml PBS was added, for determination of total counts (BO), and antibody free controls for determination of non-specific binding. Percent specific binding was determined by subtracting the value for non-specific binding from the value of total antiserum binding and then dividing by the total radioactivity added.
Sensitivity of the antisera R674 (2nd bleed) was determined in the above RIA. The antiserum was diluted in PET/GEL buffer (1:12,000 final dilution in the 200 μl assay volume) as described above so that it binds 20-30% of the total radioactivity added. The same diluted stock was then used for all assay tubes within the same assay. […] The assay was set up on a competition basis. […]

Consider `NC(N)=O` [Urea], for which the effect on displacement result is reported as “without effect”.

Regarding `N=C(N)NCCC[C@H](N)C(=O)O` [arginine], the effect on displacement entry is “without effect”.
